Data as given in patent publication US20160264536A1, “HETEROCYCLIC COMPOUND” (Takeda Pharmaceutical Company Limited, priority 2013, published 2016).

Target: T1, human PDE2A3 enzyme (Homo sapiens, UniProt O00408)
T1 construct: Human PDE2A3 full-length gene was transduced into Sf9; His-tag; made in house; host or cells: Sf9 insect cells
Assay: PDE enzyme inhibitory assay (SPA, [3H]cGMP substrate)
Assay type: biochemical
Details: compound 1 μM, substrate [3H]cGMP 77 nM, read-out: inhibitory rate (%) (1 μM)
Procedure: PDE Enzyme Inhibitory Assay
Human PDE2A3 full-length gene was transduced into Sf9, and human PDE2A3 enzyme was purified by His-tag affinity column and gel filtration. The enzyme was stored at −70° C. until use. PDE activity was measured by using a SPA (Scintillation Proximity Assay) (GE Healthcare). To evaluate the inhibitory activity of the compound, 10 μl of serial diluted compounds were reacted with 20 μl of PDE enzyme in assay buffer (50 mM HEPES-NaOH, 8.3 mM MgCl2, 1.7 mM EGTA, 0.1% BSA (pH 7.4)) for 30 min at room temperature. Final concentration of DMSO in the reaction solution was 1%. Compounds were tested in duplicate in 96-well half-area plates (Corning) or 384-well OptiPlate (PerkinElmer). To start the reaction, 10 μl of substrate [^3H]cGMP (final concentration 77 nM, PerkinElmer) was added to a total volume of 40 μl. After reaction for 60 min at room temperature, 20 μl of 20 mg/mL yttrium SPA beads containing zinc sulfate was added to terminate the reaction. After being settled for further 1 hour, the assay plates were counted in a scintillation counter (PerkinElmer) to allow calculation of inhibition rate. Inhibition rate was calculated on the basis of 0% control wells with enzyme and DMSO, and 100% control wells without enzyme.

T1 sequence (O00408 whole entry): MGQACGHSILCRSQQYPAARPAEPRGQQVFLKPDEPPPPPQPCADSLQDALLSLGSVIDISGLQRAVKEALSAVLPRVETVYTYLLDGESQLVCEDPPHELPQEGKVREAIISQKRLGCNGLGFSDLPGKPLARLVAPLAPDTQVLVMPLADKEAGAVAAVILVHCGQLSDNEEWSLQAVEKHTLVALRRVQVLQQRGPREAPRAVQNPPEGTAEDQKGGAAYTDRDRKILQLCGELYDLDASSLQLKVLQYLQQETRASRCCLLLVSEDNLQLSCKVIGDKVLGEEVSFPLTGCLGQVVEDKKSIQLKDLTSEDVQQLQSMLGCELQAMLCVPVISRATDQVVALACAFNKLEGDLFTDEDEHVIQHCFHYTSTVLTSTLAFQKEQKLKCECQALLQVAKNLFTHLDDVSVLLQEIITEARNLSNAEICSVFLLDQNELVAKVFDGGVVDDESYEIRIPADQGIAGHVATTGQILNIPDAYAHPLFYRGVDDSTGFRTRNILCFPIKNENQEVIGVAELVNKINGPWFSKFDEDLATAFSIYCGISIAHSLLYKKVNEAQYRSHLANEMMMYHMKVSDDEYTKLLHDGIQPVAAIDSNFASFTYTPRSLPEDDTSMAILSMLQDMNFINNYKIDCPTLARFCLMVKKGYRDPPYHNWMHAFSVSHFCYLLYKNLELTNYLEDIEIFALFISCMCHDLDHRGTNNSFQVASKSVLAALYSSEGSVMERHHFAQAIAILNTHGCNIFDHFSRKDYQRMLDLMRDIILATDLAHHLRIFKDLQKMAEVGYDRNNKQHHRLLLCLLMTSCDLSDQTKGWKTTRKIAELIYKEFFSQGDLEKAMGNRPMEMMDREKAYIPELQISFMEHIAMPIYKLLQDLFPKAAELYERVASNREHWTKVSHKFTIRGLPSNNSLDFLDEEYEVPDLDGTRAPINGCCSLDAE

Structure (SMILES)	inhibition at 1 µM [%]
COC[C@@H](NC(=O)c1cc(=O)[nH]c(-c2ccoc2)n1)c1ccc(OC(F)(F)F)c(F)c1 [Example 122, N-((1S)-1-(3-fluoro-4-(trifluoromethoxy)phenyl)-2-methoxyethyl)-2-(3-furyl)-6-oxo-1,6-dihydropyrimidine-4-carboxamide]	102
COCC(NC(=O)c1cc(=O)[nH]c(C2=CCCC2)n1)c1ccc(-n2cccn2)c(F)c1 (centres unmarked) [Example 129, 2-(cyclopent-1-en-1-yl)-N-(1-(3-fluoro-4-(1H-pyrazol-1-yl)phenyl)-2-methoxyethyl)-6-oxo-1,6-dihydropyrimidine-4-carboxamide]	98
COC[C@@H](NC(=O)c1cc(=O)[nH]c(-c2ncc(OC)cc2OC)n1)c1ccc(OC(F)(F)F)c(F)c1 [Example 152, 2-(3,5-dimethoxypyridin-2-yl)-N-((1S)-1-(3-fluoro-4-(trifluoromethoxy)phenyl)-2-methoxyethyl)-6-oxo-1,6-dihydropyrimidine-4-carboxamide]	96
COC[C@@H](NC(=O)c1cc(=O)[nH]c(C2(C)CC2)n1)c1ccc(OC(F)(F)F)cc1 [Example 153, N-((1S)-2-methoxy-1-(4-(trifluoromethoxy)phenyl)ethyl)-2-(1-methylcyclopropyl)-6-oxo-1,6-dihydropyrimidine-4-carboxamide]	100
Cn1cc(-c2cncc(C(=O)N[C@@H](c3ccc(OC(F)(F)F)c(F)c3)C(C)(C)O)n2)cn1 [Example 158, N-((1S)-1-(3-fluoro-4-(trifluoromethoxy)phenyl)-2-hydroxy-2-methylpropyl)-6-(1-methyl-1H-pyrazol-4-yl)pyrazine-2-carboxamide]	97
COC[C@@H](NC(=O)c1cc(=O)[nH]c(C2=CCC(OC)C2)n1)c1ccc(OC(F)(F)F)c(F)c1 (stereo partly drawn) [Example 171, N-((1S)-1-(3-fluoro-4-(trifluoromethoxy)phenyl)-2-methoxyethyl)-2-(4-methoxycyclopent-1-en-1-yl)-6-oxo-1,6-dihydropyrimidine-4-carboxamide]	103
COC[C@@H](NC(=O)c1cc(=O)[nH]c(-c2ncc(C3CC3)cc2F)n1)c1ccc(OC(F)(F)F)c(F)c1 [Example 185, 2-(5-cyclopropyl-3-fluoropyridin-2-yl)-N-((1S)-1-(3-fluoro-4-(trifluoro-methoxy)phenyl)-2-methoxyethyl)-6-oxo-1,6-dihydropyrimidine-4-carboxamide]	94
CCOc1cnc(-c2nc(C(=O)N[C@H](COC)c3ccc(OC(F)(F)F)c(F)c3)cc(=O)[nH]2)c(OCC)c1 [Example 187, 2-(3,5-diethoxypyridin-2-yl)-N-((1S)-1-(3-fluoro-4-(trifluoromethoxy)phenyl)-2-methoxyethyl)-6-oxo-1,6-dihydropyrimidine-4-carboxamide]	105
COC[C@@H](NC(=O)c1cc(=O)[nH]c(-c2ncc(C3CC3)cc2OC)n1)c1ccc(OC(F)(F)F)c(F)c1 [Example 189, 2-(5-cyclopropyl-3-methoxypyridin-2-yl)-N-((1S)-1-(3-fluoro-4-(trifluoro-methoxy)phenyl)-2-methoxyethyl)-6-oxo-1,6-dihydropyrimidine-4-carboxamide]	99

The next lines start with the values.

inhibition at 1 µM [%]	Structure (SMILES)
94	CO[C@H]1CCN(c2cncc(C(=O)N[C@@H](c3ccc(OC(F)(F)F)c(F)c3)C(C)(C)O)n2)C1 [Example 163, N-((1S)-1-(3-fluoro-4-(trifluoromethoxy)phenyl)-2-hydroxy-2-methylpropyl)-6-((3S)-3-methoxypyrrolidin-1-yl)pyrazine-2-carboxamide]
99	COC[C@@H](NC(=O)c1cc(=O)[nH]c(-c2ncc(OC)cc2F)n1)c1ccc(OC(F)(F)F)c(F)c1 [Example 178, 2-(3-fluoro-5-methoxypyridin-2-yl)-N-((1S)-1-(3-fluoro-4-(trifluoromethoxy)phenyl)-2-methoxyethyl)-6-oxo-1,6-dihydropyrimidine-4-carboxamide]
94	COC[C@@H](NC(=O)c1cc(=O)[nH]c(-c2ncc(OC)cc2C)n1)c1ccc(OC(F)(F)F)c(F)c1 [Example 179, N-((1S)-1-(3-fluoro-4-(trifluoromethoxy)phenyl)-2-methoxyethyl)-2-(5-methoxy-3-methylpyridin-2-yl)-6-oxo-1,6-dihydropyrimidine-4-carboxamide]
95	COC[C@@H](NC(=O)c1cc(=O)[nH]c(-c2ncc(OC)cc2Cl)n1)c1ccc(OC(F)(F)F)c(F)c1 [Example 184, 2-(3-chloro-5-methoxypyridin-2-yl)-N-((1S)-1-(3-fluoro-4-(trifluoromethoxy)phenyl)-2-methoxyethyl)-6-oxo-1,6-dihydropyrimidine-4-carboxamide]
92	COC[C@@H](NC(=O)c1cc(=O)[nH]c(-c2ncc(OC(F)F)cc2F)n1)c1ccc(OC(F)(F)F)c(F)c1 [Example 186, 2-(5-(difluoromethoxy)-3-fluoropyridin-2-yl)-N-((1S)-1-(3-fluoro-4-(trifluoro-methoxy)phenyl)-2-methoxyethyl)-6-oxo-1,6-dihydropyrimidine-4-carboxamide]
